The values below are quoted from earlier work in patent USRE37727E1, “Method for treating nerve injury pain associated with shingles” (priority 1989, dated 2002).

For this data set the following is noted: venous; reported range.

With `CCN(CC)CC(=O)Nc1c(C)cccc1C` [lidocaine], the “minimum concentrations of lidocaine for anti-arrhythmic effects” value was 0.6 to 2.0 µg/mL.
